Reference: ChEMBL document CHEMBL1136174, “Synthesis and antimycobacterial activity of capuramycin analogues. Part 1: substitution of the azepan-2-one moiety of capuramycin” (Bioorg Med Chem Lett, 2003)
Converted amounts (≈) assume the structure as drawn.

Tests used:
[1] = tested on: Mycolicibacterium smegmatis; test: Antimycobacterial activity against Mycobacterium smegmatis (SANK 75075); type: functional
[2] = molecular target: T1, Phospho-N-acetylmuramoyl-pentapeptide-transferase (Escherichia coli K-12, UniProt P0A6W3); test: Inhibitory activity against translocase I
T1 sequence (P0A6W3 whole entry): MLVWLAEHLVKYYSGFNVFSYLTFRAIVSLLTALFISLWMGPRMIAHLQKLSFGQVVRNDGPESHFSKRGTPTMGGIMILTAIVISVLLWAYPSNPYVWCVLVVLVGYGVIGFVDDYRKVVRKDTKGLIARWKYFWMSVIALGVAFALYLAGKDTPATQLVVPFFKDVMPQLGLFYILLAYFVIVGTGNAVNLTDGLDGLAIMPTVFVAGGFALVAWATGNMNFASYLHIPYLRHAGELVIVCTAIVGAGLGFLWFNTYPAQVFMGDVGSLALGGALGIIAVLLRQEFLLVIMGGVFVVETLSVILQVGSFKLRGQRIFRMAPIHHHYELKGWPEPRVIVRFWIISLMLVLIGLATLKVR

| Compound | MIC [1] [µg/mL] | IC50 [2] [nM] |
| --- | --- | --- |
| CO[C@H]1[C@@H](O)[C@H](n2ccc(=O)[nH]c2=O)O[C@@H]1[C@@H](O[C@H]1OC(C(=O)NCc2ccco2)=C[C@H](O)[C@@H]1O)C(N)=O | 100 (≈ 186 µM) | 520 |
| CO[C@H]1[C@@H](O)[C@H](n2ccc(=O)[nH]c2=O)O[C@@H]1[C@@H](O[C@H]1OC(C(=O)Nc2ccc(C(F)(F)F)cc2)=C[C@H](O)[C@@H]1O)C(N)=O | 12.5 (≈ 20.7 µM) |  |
| CCc1ccc(NC(=O)C2=C[C@H](O)[C@H](O)[C@@H](O[C@@H](C(N)=O)[C@H]3O[C@@H](n4ccc(=O)[nH]c4=O)[C@H](O)[C@@H]3OC)O2)cc1 | 12.5 (≈ 22.2 µM) | 35.6 |
| CO[C@H]1[C@@H](O)[C@H](n2ccc(=O)[nH]c2=O)O[C@@H]1[C@@H](O[C@H]1OC(C(=O)NCc2ccc(C)cc2)=C[C@H](O)[C@@H]1O)C(N)=O | 50 (≈ 88.9 µM) | 2130 |
| CO[C@H]1[C@@H](O)[C@H](n2ccc(=O)[nH]c2=O)O[C@@H]1[C@@H](O[C@H]1OC(C(=O)NCCc2cccs2)=C[C@H](O)[C@@H]1O)C(N)=O | 25 (≈ 44 µM) | 22.9 |
| CO[C@H]1[C@@H](O)[C@H](n2ccc(=O)[nH]c2=O)O[C@@H]1[C@@H](O[C@H]1OC(C(=O)N2CCCC2)=C[C@H](O)[C@@H]1O)C(N)=O | > 100 | 820 |
| CO[C@H]1[C@@H](O)[C@H](n2ccc(=O)[nH]c2=O)O[C@@H]1[C@@H](O[C@H]1OC(C(=O)Nc2ccccc2OCc2ccccc2)=C[C@H](O)[C@@H]1O)C(N)=O | 25 (≈ 39 µM) | 35.9 |
| CO[C@H]1[C@@H](O)[C@H](n2ccc(=O)[nH]c2=O)O[C@@H]1[C@@H](O[C@H]1OC(C(=O)NCCc2ccc(F)cc2)=C[C@H](O)[C@@H]1O)C(N)=O | 12.5 (≈ 21.5 µM) | 37.9 |
| COc1ccccc1CCNC(=O)C1=C[C@H](O)[C@H](O)[C@@H](O[C@@H](C(N)=O)[C@H]2O[C@@H](n3ccc(=O)[nH]c3=O)[C@H](O)[C@@H]2OC)O1 | 50 (≈ 84.4 µM) | 54 |
| CO[C@H]1[C@@H](O)[C@H](n2ccc(=O)[nH]c2=O)O[C@@H]1[C@@H](O[C@H]1OC(C(=O)NCc2ccccc2C)=C[C@H](O)[C@@H]1O)C(N)=O | 12.5 (≈ 22.2 µM) | 889 |
| CCCCCCNC(=O)C1=C[C@H](O)[C@H](O)[C@@H](O[C@@H](C(N)=O)[C@H]2O[C@@H](n3ccc(=O)[nH]c3=O)[C@H](O)[C@@H]2OC)O1 | 12.5 (≈ 23 µM) | 55.3 |
| CO[C@H]1[C@@H](O)[C@H](n2ccc(=O)[nH]c2=O)O[C@@H]1[C@@H](O[C@H]1OC(C(=O)Nc2cccc(F)c2F)=C[C@H](O)[C@@H]1O)C(N)=O | 12.5 (≈ 21.9 µM) | 22.8 |
| CO[C@H]1[C@@H](O)[C@H](n2ccc(=O)[nH]c2=O)O[C@@H]1[C@@H](O[C@H]1OC(C(=O)N(C)c2ccccc2)=C[C@H](O)[C@@H]1O)C(N)=O | > 100 | > 4560 |
| CO[C@H]1[C@@H](O)[C@H](n2ccc(=O)[nH]c2=O)O[C@@H]1[C@@H](O[C@H]1OC(C(=O)Nc2ccc(C)cc2C)=C[C@H](O)[C@@H]1O)C(N)=O | 25 (≈ 44.4 µM) | 107 |
| CO[C@H]1[C@@H](O)[C@H](n2ccc(=O)[nH]c2=O)O[C@@H]1[C@@H](O[C@H]1OC(C(=O)NCc2cccs2)=C[C@H](O)[C@@H]1O)C(N)=O | 50 (≈ 90.2 µM) | 139 |
| CO[C@H]1[C@@H](O)[C@H](n2ccc(=O)[nH]c2=O)O[C@@H]1[C@@H](O[C@H]1OC(C(=O)Nc2ccc(F)cc2F)=C[C@H](O)[C@@H]1O)C(N)=O | 12.5 (≈ 21.9 µM) | 26.3 |
| CO[C@H]1[C@@H](O)[C@H](n2ccc(=O)[nH]c2=O)O[C@@H]1[C@@H](O[C@H]1OC(C(=O)NCCCCO)=C[C@H](O)[C@@H]1O)C(N)=O | > 100 | 320 |
| CO[C@H]1[C@@H](O)[C@H](n2ccc(=O)[nH]c2=O)O[C@@H]1[C@@H](O[C@H]1OC(C(=O)NCCO)=C[C@H](O)[C@@H]1O)C(N)=O | > 100 | 179 |
| CO[C@H]1[C@@H](O)[C@H](n2ccc(=O)[nH]c2=O)O[C@@H]1[C@@H](O[C@H]1OC(C(=O)NCCc2ccc(C)cc2)=C[C@H](O)[C@@H]1O)C(N)=O | 50 (≈ 86.7 µM) | 59 |
| CO[C@H]1[C@@H](O)[C@H](n2ccc(=O)[nH]c2=O)O[C@@H]1[C@@H](O[C@H]1OC(C(=O)NCCc2ccc(O)cc2)=C[C@H](O)[C@@H]1O)C(N)=O | 50 (≈ 86.4 µM) | 104 |
| CO[C@H]1[C@@H](O)[C@H](n2ccc(=O)[nH]c2=O)O[C@@H]1[C@@H](O[C@H]1OC(C(=O)NCc2ccccc2)=C[C@H](O)[C@@H]1O)C(N)=O | 50 (≈ 91.2 µM) | 219 |
| CCCCCCCCCCCCNC(=O)C1=C[C@H](O)[C@H](O)[C@@H](O[C@@H](C(N)=O)[C@H]2O[C@@H](n3ccc(=O)[nH]c3=O)[C@H](O)[C@@H]2OC)O1 | 25 (≈ 39.9 µM) | 622 |

| Compound | MIC [1] [µg/mL] | IC50 [2] [nM] |
| --- | --- | --- |
| CCCCCCCCCCNC(=O)C1=C[C@H](O)[C@H](O)[C@@H](O[C@@H](C(N)=O)[C@H]2O[C@@H](n3ccc(=O)[nH]c3=O)[C@H](O)[C@@H]2OC)O1 | 25 (≈ 41.8 µM) | 434 |
| COc1cc(CNC(=O)C2=C[C@H](O)[C@H](O)[C@@H](O[C@@H](C(N)=O)[C@H]3O[C@@H](n4ccc(=O)[nH]c4=O)[C@H](O)[C@@H]3OC)O2)cc(OC)c1OC | > 100 | 658 |
| CO[C@H]1[C@@H](O)[C@H](n2ccc(=O)[nH]c2=O)O[C@@H]1[C@@H](O[C@H]1OC(C(=O)Nc2ccc([N+](=O)[O-])cc2)=C[C@H](O)[C@@H]1O)C(N)=O | 25 (≈ 43.1 µM) | 69 |
| CO[C@H]1[C@@H](O)[C@H](n2ccc(=O)[nH]c2=O)O[C@@H]1[C@@H](O[C@H]1OC(C(=O)Nc2nncs2)=C[C@H](O)[C@@H]1O)C(N)=O | > 100 | 194 |
| CCc1ccccc1NC(=O)C1=C[C@H](O)[C@H](O)[C@@H](O[C@@H](C(N)=O)[C@H]2O[C@@H](n3ccc(=O)[nH]c3=O)[C@H](O)[C@@H]2OC)O1 | 50 (≈ 88.9 µM) | 96 |
| CO[C@H]1[C@@H](O)[C@H](n2ccc(=O)[nH]c2=O)O[C@@H]1[C@@H](O[C@H]1OC(C(=O)Nc2nc(C(C)(C)C)cs2)=C[C@H](O)[C@@H]1O)C(N)=O | 100 (≈ 167 µM) | 25.1 |
| CO[C@H]1[C@@H](O)[C@H](n2ccc(=O)[nH]c2=O)O[C@@H]1[C@@H](O[C@H]1OC(C(=O)NCCc2ccc(Cl)cc2)=C[C@H](O)[C@@H]1O)C(N)=O | 25 (≈ 41.9 µM) | 33.5 |
| CO[C@H]1[C@@H](O)[C@H](n2ccc(=O)[nH]c2=O)O[C@@H]1[C@@H](O[C@H]1OC(C(=O)NCC(c2ccccc2)c2ccccc2)=C[C@H](O)[C@@H]1O)C(N)=O | > 100 | 204 |
| CO[C@H]1[C@@H](O)[C@H](n2ccc(=O)[nH]c2=O)O[C@@H]1[C@@H](O[C@H]1OC(C(=O)NCCN)=C[C@H](O)[C@@H]1O)C(N)=O | 100 (≈ 199 µM) | 1200 |
| CO[C@H]1[C@@H](O)[C@H](n2ccc(=O)[nH]c2=O)O[C@@H]1[C@@H](O[C@H]1OC(C(=O)NCCc2cccc(Cl)c2)=C[C@H](O)[C@@H]1O)C(N)=O | 12.5 (≈ 20.9 µM) | 33.5 |
| CO[C@H]1[C@@H](O)[C@H](n2ccc(=O)[nH]c2=O)O[C@@H]1[C@@H](O[C@H]1OC(C(=O)NCCCSC)=C[C@H](O)[C@@H]1O)C(N)=O | 50 (≈ 91.5 µM) | 128 |
| CO[C@H]1[C@@H](O)[C@H](n2ccc(=O)[nH]c2=O)O[C@@H]1[C@@H](O[C@H]1OC(C(=O)NCc2ccccn2)=C[C@H](O)[C@@H]1O)C(N)=O | 100 (≈ 182 µM) | 655 |
| COc1ccc(CCNC(=O)C2=C[C@H](O)[C@H](O)[C@@H](O[C@@H](C(N)=O)[C@H]3O[C@@H](n4ccc(=O)[nH]c4=O)[C@H](O)[C@@H]3OC)O2)cc1OC | 50 (≈ 80.3 µM) | 40.2 |
| CO[C@H]1[C@@H](O)[C@H](n2ccc(=O)[nH]c2=O)O[C@@H]1[C@@H](O[C@H]1OC(C(=O)Nc2nccs2)=C[C@H](O)[C@@H]1O)C(N)=O | 25 (≈ 46.2 µM) | 33.2 |
| CO[C@H]1[C@@H](O)[C@H](n2ccc(=O)[nH]c2=O)O[C@@H]1[C@@H](O[C@H]1OC(C(=O)NC2CCCCCC2)=C[C@H](O)[C@@H]1O)C(N)=O | 25 (≈ 45.1 µM) | 48.7 |
| CO[C@H]1[C@@H](O)[C@H](n2ccc(=O)[nH]c2=O)O[C@@H]1[C@@H](O[C@H]1OC(C(=O)NCc2ccc3ccccc3c2)=C[C@H](O)[C@@H]1O)C(N)=O | 25 (≈ 41.8 µM) | 184 |
| CO[C@H]1[C@@H](O)[C@H](n2ccc(=O)[nH]c2=O)O[C@@H]1[C@@H](O[C@H]1OC(C(=O)NC2CCCCC2)=C[C@H](O)[C@@H]1O)C(N)=O | 12.5 (≈ 23.1 µM) | 55.5 |
| COc1ccccc1NC(=O)C1=C[C@H](O)[C@H](O)[C@@H](O[C@@H](C(N)=O)[C@H]2O[C@@H](n3ccc(=O)[nH]c3=O)[C@H](O)[C@@H]2OC)O1 | 25 (≈ 44.3 µM) | 54.9 |
| CO[C@H]1[C@@H](O)[C@H](n2ccc(=O)[nH]c2=O)O[C@@H]1[C@@H](O[C@H]1OC(C(=O)Nc2ccc(C)cc2)=C[C@H](O)[C@@H]1O)C(N)=O | 12.5 (≈ 22.8 µM) | 23.7 |
| CCCCCCCCCCCCCCNC(=O)C1=C[C@H](O)[C@H](O)[C@@H](O[C@@H](C(N)=O)[C@H]2O[C@@H](n3ccc(=O)[nH]c3=O)[C@H](O)[C@@H]2OC)O1 | > 50 | > 3820 |
| CO[C@H]1[C@@H](O)[C@H](n2ccc(=O)[nH]c2=O)O[C@@H]1[C@@H](O[C@H]1OC(C(=O)NCCc2ccccc2Cl)=C[C@H](O)[C@@H]1O)C(N)=O | 25 (≈ 41.9 µM) | 46.9 |
| CCCc1ccc(NC(=O)C2=C[C@H](O)[C@H](O)[C@@H](O[C@@H](C(N)=O)[C@H]3O[C@@H](n4ccc(=O)[nH]c4=O)[C@H](O)[C@@H]3OC)O2)cc1 | 12.5 (≈ 21.7 µM) | 53.8 |
